Source: ChEMBL document CHEMBL4673368, “Ophiobolin Sesterterpenoids and Farnesylated Phthalide Derivatives from the Deep Sea Cold-Seep-Derived Fungus Aspergillus insuetus SD-512” (2020)

Columns and labels:
Format in all cases: functional
Vibrio parahaemolyticus = experiment: Antibacterial activity against Vibrio parahaemolyticus QDIO-5 assessed as reduction in microbial growth after 24 hrs by serial dilution method
Aeromonas hydrophila = experiment: Antibacterial activity against Aeromonas hydrophila QDIO-10 assessed as reduction in microbial growth after 24 hrs by serial dilution method
Edwardsiella tarda = experiment: Antibacterial activity against Edwardsiella tarda QDIO-8 assessed as reduction in microbial growth after 24 hrs by serial dilution method
Escherichia coli = experiment: Antibacterial activity against Escherichia coli QDIO-1 assessed as reduction in microbial growth after 24 hrs by serial dilution method
Vibrio alginolyticus = experiment: Antibacterial activity against Vibrio alginolyticus QDIO-7 assessed as reduction in microbial growth after 24 hrs by serial dilution method
Vibrio vulnificus = experiment: Antibacterial activity against Vibrio vulnificus QDIO-4 assessed as reduction in microbial growth after 24 hrs by serial dilution method
Pseudomonas aeruginosa = experiment: Antibacterial activity against Pseudomonas aeruginosa QDIO-2 assessed as reduction in microbial growth after 24 hrs by serial dilution method
Vibrio anguillarum = experiment: Antibacterial activity against Vibrio anguillarum QDIO-9 assessed as reduction in microbial growth after 24 hrs by serial dilution method

COc1cc2c(c(O)c1OC/C=C(\C)CC/C=C(\C)CCCC(C)(C)OC(C)=O)COC2=O
MIC (Vibrio parahaemolyticus): 8 µg/mL
MIC (Aeromonas hydrophila): 8 µg/mL
MIC (Edwardsiella tarda): 4 µg/mL
MIC (Escherichia coli): 32 µg/mL
MIC (Vibrio alginolyticus): 4 µg/mL
MIC (Vibrio vulnificus): 4 µg/mL
MIC (Pseudomonas aeruginosa): 8 µg/mL
MIC (Vibrio anguillarum): > 32 µg/mL

COc1cc2c(c(O)c1OC/C=C(\C)CC/C=C(\C)CCCC(C)(C)O)COC2=O
MIC (Vibrio parahaemolyticus): 16 µg/mL
MIC (Aeromonas hydrophila): 16 µg/mL
MIC (Edwardsiella tarda): 8 µg/mL
MIC (Escherichia coli): 32 µg/mL
MIC (Vibrio alginolyticus): 8 µg/mL
MIC (Vibrio vulnificus): 4 µg/mL
MIC (Pseudomonas aeruginosa): 16 µg/mL
MIC (Vibrio anguillarum): > 32 µg/mL

CO[C@]12C[C@@](C)(O)[C@H]3C[C@@]4(C)CC[C@H]([C@@H](C)/C=C\C=C(C)C)[C@@H]4C/C=C(/CO1)[C@@]32O
MIC (Vibrio parahaemolyticus): > 32 µg/mL
MIC (Aeromonas hydrophila): > 32 µg/mL
MIC (Edwardsiella tarda): > 32 µg/mL
MIC (Escherichia coli): > 32 µg/mL
MIC (Vibrio alginolyticus): > 32 µg/mL
MIC (Vibrio vulnificus): > 32 µg/mL
MIC (Pseudomonas aeruginosa): > 32 µg/mL
MIC (Vibrio anguillarum): > 32 µg/mL

CC(C)=C/C=C\[C@H](C)[C@H]1CC[C@]2(C)C[C@H]3[C@@H]4/C(=C\C[C@@H]12)CO[C@]4(O)C[C@@]3(C)O
MIC (Vibrio parahaemolyticus): > 32 µg/mL
MIC (Aeromonas hydrophila): > 32 µg/mL
MIC (Edwardsiella tarda): > 32 µg/mL
MIC (Escherichia coli): > 32 µg/mL
MIC (Vibrio alginolyticus): > 32 µg/mL
MIC (Vibrio vulnificus): > 32 µg/mL
MIC (Pseudomonas aeruginosa): > 32 µg/mL
MIC (Vibrio anguillarum): > 32 µg/mL

CC(C)=CCC[C@H](C)[C@H]1CC[C@]2(C)C[C@H]3[C@H]4/C(=C\C[C@@H]12)CO[C@@]4(O)C[C@@]3(C)O
MIC (Vibrio parahaemolyticus): 4 µg/mL
MIC (Aeromonas hydrophila): 4 µg/mL
MIC (Edwardsiella tarda): 4 µg/mL
MIC (Escherichia coli): 4 µg/mL
MIC (Vibrio alginolyticus): 4 µg/mL
MIC (Vibrio vulnificus): 8 µg/mL
MIC (Pseudomonas aeruginosa): 8 µg/mL
MIC (Vibrio anguillarum): 32 µg/mL

CC(C)=CCC[C@H](C)[C@H]1CC[C@]2(C)C[C@@H]3C(C)=CC(=O)[C@H]3/C(C=O)=C\C[C@@H]12
MIC (Vibrio parahaemolyticus): > 32 µg/mL
MIC (Aeromonas hydrophila): > 32 µg/mL
MIC (Edwardsiella tarda): > 32 µg/mL
MIC (Escherichia coli): > 32 µg/mL
MIC (Vibrio alginolyticus): > 32 µg/mL
MIC (Vibrio vulnificus): > 32 µg/mL
MIC (Pseudomonas aeruginosa): > 32 µg/mL
MIC (Vibrio anguillarum): > 32 µg/mL

COc1cc2c(c(O)c1OC/C=C(\C)CC/C=C(\C)CCC=C(C)C)COC2=O
MIC (Vibrio parahaemolyticus): 16 µg/mL
MIC (Aeromonas hydrophila): 8 µg/mL
MIC (Edwardsiella tarda): 8 µg/mL
MIC (Escherichia coli): 32 µg/mL
MIC (Vibrio alginolyticus): 4 µg/mL
MIC (Vibrio vulnificus): 4 µg/mL
MIC (Pseudomonas aeruginosa): 16 µg/mL
MIC (Vibrio anguillarum): > 32 µg/mL

CC(C)=CCC[C@H](C)[C@H]1CC[C@]2(C)C[C@@H]3C(C)=CC(=O)[C@H]3/C(CO)=C\C[C@@H]12
MIC (Vibrio parahaemolyticus): > 32 µg/mL
MIC (Aeromonas hydrophila): > 32 µg/mL
MIC (Edwardsiella tarda): > 32 µg/mL
MIC (Escherichia coli): > 32 µg/mL
MIC (Vibrio alginolyticus): > 32 µg/mL
MIC (Vibrio vulnificus): > 32 µg/mL
MIC (Pseudomonas aeruginosa): > 32 µg/mL
MIC (Vibrio anguillarum): > 32 µg/mL

CC(C)=C/C=C\[C@H](C)[C@H]1CC[C@]2(C)C[C@@H]3C(C)=CC(=O)[C@H]3/C(C=O)=C\C[C@@H]12
MIC (Vibrio parahaemolyticus): 8 µg/mL
MIC (Aeromonas hydrophila): 8 µg/mL
MIC (Edwardsiella tarda): 8 µg/mL
MIC (Escherichia coli): 16 µg/mL
MIC (Vibrio alginolyticus): 4 µg/mL
MIC (Vibrio vulnificus): 8 µg/mL
MIC (Pseudomonas aeruginosa): 8 µg/mL
MIC (Vibrio anguillarum): 32 µg/mL

CC(C)=C/C=C\[C@H](C)[C@H]1CC[C@]2(C)C[C@@H]3C(C)=CC(=O)[C@H]3/C(CO)=C\C[C@@H]12
MIC (Vibrio parahaemolyticus): 8 µg/mL
MIC (Aeromonas hydrophila): 8 µg/mL
MIC (Edwardsiella tarda): 8 µg/mL
MIC (Escherichia coli): 16 µg/mL
MIC (Vibrio alginolyticus): 4 µg/mL
MIC (Vibrio vulnificus): 8 µg/mL
MIC (Pseudomonas aeruginosa): 8 µg/mL
MIC (Vibrio anguillarum): 32 µg/mL

CC(C)=CCC[C@H](C)[C@H]1CC[C@]2(C)C[C@H]3[C@@H]4/C(=C\C[C@@H]12)CO[C@]4(O)C[C@@]3(C)O
MIC (Vibrio parahaemolyticus): > 32 µg/mL
MIC (Aeromonas hydrophila): > 32 µg/mL
MIC (Edwardsiella tarda): > 32 µg/mL
MIC (Escherichia coli): > 32 µg/mL
MIC (Vibrio alginolyticus): > 32 µg/mL
MIC (Vibrio vulnificus): > 32 µg/mL
MIC (Pseudomonas aeruginosa): > 32 µg/mL
MIC (Vibrio anguillarum): > 32 µg/mL

O=C(N[C@H](CO)[C@H](O)c1ccc([N+](=O)[O-])cc1)C(Cl)Cl [CHLORAMPHENICOL]
MIC (Vibrio parahaemolyticus): 1 µg/mL
MIC (Aeromonas hydrophila): 1 µg/mL
MIC (Edwardsiella tarda): 0.5 µg/mL
MIC (Escherichia coli): 1 µg/mL
MIC (Vibrio alginolyticus): 0.5 µg/mL
MIC (Vibrio vulnificus): 0.5 µg/mL
MIC (Pseudomonas aeruginosa): 1 µg/mL
MIC (Vibrio anguillarum): 0.5 µg/mL
